Assay results published in patent US11850237B2, “Compounds and methods for treating influenza” (priority 2009, dated 2023).
≈ marks a conversion by molar mass, not a printed value. Where two headings read alike, the source gives them in different places.

Tests used:
H1N1 A/PR/8/34 (PR8) = assay: microbe, parasite or virus in culture; assay type: cell-based, influenza A virus; settings: for EC50 / EC90: Influenza A virus; for EC90: read-out: Virus Yield EC90; for antiviral activity against PR8, overall rating: PR8 influenza A virus, Table 1
MDCK cells = assay: Toxicity / cell viability by MTT in uninfected MDCK cells; assay type: cell-based, canine; settings: MDCK cells, MTT
Description: (§1) Cell culture, treatment and transfection-Madin-Darby canine kidney (MDCK) cells, and human A549 alveolar type II-like epithelial, Jurkat Tlymphoblastoid and U397 monocytic leukemia cells were grown at 37° C. in a 5% CO2 atmosphere in RPMI 1640 (Invitrogen), supplemented with 10% fetal calf serum (FCS), 2 mM glutamine and antibiotics. Test compounds were added immediately after 1-hour adsorption period, and kept in the culture medium for the entire time of the experiment, unless differently specified. […] Cell viability was determined by the 3-(4,5-dimethylthiazol-2-yl)-2,5-diphenyltetrazolium bromide (MTT) to MTT formazan conversion assay (Sigma-Aldrich) as described previously. Microscopical examination of mock-infected or virus-infected cells was performed using a Leica DM-IL microscope and images were captured on a Leica DC 300 camera using Leica Image-Manager500 software.

[1] = as above; assay type: cell-based, canine; settings: dog, uninfected MDCK cells; uninfected cells
Description: as §1

[2] = test system: H1N1 A/PR/8/34 (PR8) virus; assay: microbe, parasite or virus in culture; assay type: cell-based, influenza A virus; settings: for PR8 Yield: Nitazoxanide 0 μg/ml
[3] = test system: H1N1 A/PR/8/34 (PR8) virus; assay: microbe, parasite or virus in culture; assay type: cell-based, influenza A virus; settings: oseltamivir alone at test concentrations up to 1
[4] = molecular target: viral hemagglutinin (HA0) (Influenza A virus, UniProt P03452); assay type: cell-based
[5] = PR8, MDCK cells, read-out: Virus Yield EC50
[6] = MDCK, 24 h, read-out: EC50, inhibition of virus replication

Chain of viral hemagglutinin (HA0) (P03452 18-565 limits assumed): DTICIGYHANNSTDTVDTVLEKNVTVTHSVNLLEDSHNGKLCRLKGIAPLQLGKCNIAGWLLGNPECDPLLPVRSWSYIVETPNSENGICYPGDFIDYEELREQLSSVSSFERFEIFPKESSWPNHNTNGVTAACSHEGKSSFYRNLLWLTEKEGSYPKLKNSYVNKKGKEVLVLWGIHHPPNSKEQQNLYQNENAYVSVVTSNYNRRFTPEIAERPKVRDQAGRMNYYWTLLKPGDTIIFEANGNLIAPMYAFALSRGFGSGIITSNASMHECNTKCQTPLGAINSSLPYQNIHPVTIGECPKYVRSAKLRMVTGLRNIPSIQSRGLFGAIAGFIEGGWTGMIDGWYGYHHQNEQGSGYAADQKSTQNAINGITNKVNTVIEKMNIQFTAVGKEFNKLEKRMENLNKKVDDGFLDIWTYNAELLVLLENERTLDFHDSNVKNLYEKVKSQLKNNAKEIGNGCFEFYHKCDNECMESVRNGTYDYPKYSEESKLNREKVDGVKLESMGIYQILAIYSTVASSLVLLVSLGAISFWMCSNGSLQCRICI

Compound | EC50 (H1N1 A/PR/8/34 (PR8); [5]) | EC90 (H1N1 A/PR/8/34 (PR8); PR8, MDCK cells) | Toxicity LD50 (MTT) (MDCK cells) | also measured
O=C(Nc1ncc([N+](=O)[O-])s1)c1ccccc1[O-].[Na+] [Compound 3, tizoxanide sodium salt] | 0.4 µg/mL | 2.5 µg/mL | >50 µg/mL | antiviral activity against PR8, overall rating (H1N1 A/PR/8/34 (PR8)): potent and selective
CC(C)COC(=O)Oc1ccccc1C(=O)Nc1ncc([N+](=O)[O-])s1 [Compound 14] | 1 µg/mL (≈ 2.74 µM) | 8 µg/mL (≈ 21.9 µM) | 20 µg/mL | –
CCOC(=O)Oc1ccccc1C(=O)Nc1ncc([N+](=O)[O-])s1 [Compound 15] | 1 µg/mL (≈ 2.96 µM) | 7 µg/mL (≈ 20.8 µM) | 30 µg/mL | –
CCC(=O)Oc1ccccc1C(=O)Nc1ncc([N+](=O)[O-])s1 [Compound 16] | 1 µg/mL (≈ 3.11 µM) | 8 µg/mL (≈ 24.9 µM) | 20 µg/mL | –
O=C(Oc1ccccc1C(=O)Nc1ncc([N+](=O)[O-])s1)c1ccccc1 [Compound 17] | 3 µg/mL (≈ 8.12 µM) | 9 µg/mL (≈ 24.4 µM) | >50 µg/mL | –
CC(=O)Oc1ccccc1C(=O)Nc1nc(S(C)(=O)=O)cs1 [Compound 27] | 0.1 µg/mL (≈ 0.294 µM) | 0.8 µg/mL (≈ 2.35 µM) | >50 µg/mL | EC50 (H1N1 A/PR/8/34 (PR8); [6]): 0.1 µg/mL (≈ 0.294 µM); potency relative to NTZ and TIZ (H1N1 A/PR/8/34 (PR8); PR8, MDCK cells): 10 times; antiviral activity against PR8, overall rating (H1N1 A/PR/8/34 (PR8)): potent and selective; CC50 [1]: > 50 µg/mL
CS(=O)(=O)c1csc(NC(=O)c2ccccc2O)n1 [Compound 28] | 0.1 µg/mL (≈ 0.335 µM) | 0.7 µg/mL (≈ 2.35 µM) | >50 µg/mL | EC50 (H1N1 A/PR/8/34 (PR8); [6]): 0.1 µg/mL (≈ 0.335 µM); potency relative to NTZ and TIZ (H1N1 A/PR/8/34 (PR8); PR8, MDCK cells): 10 times; antiviral activity against PR8, overall rating (H1N1 A/PR/8/34 (PR8)): potent and selective; CC50 [1]: > 50 µg/mL
CC(=O)Oc1ccccc1C(=O)Nc1nc([S+](C)[O-])cs1 (centres unmarked) [Compound 29] | 10 µg/mL (≈ 30.8 µM) | > 50 µg/mL | >50 µg/mL | –
C[S+]([O-])c1csc(NC(=O)c2ccccc2O)n1 (centres unmarked) [Compound 30] | 10 µg/mL (≈ 35.4 µM) | > 50 µg/mL | >50 µg/mL | –
CC(=O)Oc1cccc(C(=O)Nc2nc(S(C)(=O)=O)cs2)c1 [Compound 31] | > 50 µg/mL | > 50 µg/mL | >50 µg/mL | –
CS(=O)(=O)c1csc(NC(=O)c2cccc(O)c2)n1 [Compound 32] | > 50 µg/mL | > 50 µg/mL | >50 µg/mL | –
CSc1csc(NC(=O)c2ccc(OC(C)=O)cc2)n1 [Compound 33] | > 50 µg/mL | > 50 µg/mL | >50 µg/mL | –
CC(=O)Oc1ccc(C(=O)Nc2nc(S(C)(=O)=O)cs2)cc1 [Compound 34] | > 50 µg/mL | > 50 µg/mL | >50 µg/mL | –
CS(=O)(=O)c1csc(NC(=O)c2ccc(O)cc2)n1 [Compound 35] | > 50 µg/mL | > 50 µg/mL | >50 µg/mL | –
CC(=O)Oc1ccccc1C(=O)Nc1nc(S(=O)(=O)C(C)C)cs1 [Compound 36] | 1 µg/mL (≈ 2.71 µM) | 8 µg/mL (≈ 21.7 µM) | >50 µg/mL | antiviral activity against PR8, overall rating (H1N1 A/PR/8/34 (PR8)): potent and selective
CC(C)S(=O)(=O)c1csc(NC(=O)c2ccccc2O)n1 [Compound 37] | 0.6 µg/mL (≈ 1.84 µM) | 15 µg/mL (≈ 46 µM) | >50 µg/mL | antiviral activity against PR8, overall rating (H1N1 A/PR/8/34 (PR8)): potent and selective
CC(=O)Oc1ccccc1C(=O)Nc1nc(S(=O)(=O)C2CCCCC2)cs1 [Compound 38] | 25 µg/mL (≈ 61.2 µM) | > 50 µg/mL | >50 µg/mL | –
O=C(Nc1nc(S(=O)(=O)C2CCCCC2)cs1)c1ccccc1O [Compound 39] | 10 µg/mL (≈ 27.3 µM) | 30 µg/mL (≈ 81.9 µM) | >50 µg/mL | –
CC(=O)Oc1ccccc1C(=O)Nc1ncc(S(=O)(=O)c2ccc([N+](=O)[O-])cc2)s1 [Compound 51] | 3.5 µg/mL (≈ 7.82 µM) | 9 µg/mL (≈ 20.1 µM) | 30 µg/mL | –
CC(=O)Oc1ccccc1C(=O)Nc1ncc(S(C)(=O)=O)s1 [Compound 52] | 30 µg/mL (≈ 88.1 µM) | > 50 µg/mL | >50 µg/mL | –
CS(=O)(=O)c1cnc(NC(=O)c2ccccc2O)s1 [Compound 53] | 10 µg/mL (≈ 33.5 µM) | > 50 µg/mL | >50 µg/mL | –
CS(=O)(=O)c1cnc(NC(=O)c2ccccc2[O-])s1.[Na+] [Compound 54] | 10 µg/mL | > 50 µg/mL | >50 µg/mL | –
CCCCS(=O)(=O)c1cnc(NC(=O)c2ccccc2OC(C)=O)s1 [Compound 59] | 5 µg/mL (≈ 13.1 µM) | 30 µg/mL (≈ 78.4 µM) | >50 µg/mL | –
CC(=O)Oc1ccc(C(=O)Nc2ncc(S(C)(=O)=O)s2)cc1 [Compound 63] | 10 µg/mL (≈ 29.4 µM) | > 50 µg/mL | >50 µg/mL | –
CS(=O)(=O)c1cnc(NC(=O)c2ccc(O)cc2)s1 [Compound 64] | > 50 µg/mL | > 50 µg/mL | >50 µg/mL | –
CC(=O)Oc1cccc(C(=O)Nc2ncc(S(C)(=O)=O)s2)c1 [Compound 65] | > 50 µg/mL | > 50 µg/mL | >50 µg/mL | –
CS(=O)(=O)c1cnc(NC(=O)c2cccc(O)c2)s1 [Compound 66] | > 50 µg/mL | > 50 µg/mL | >50 µg/mL | –
CC(=O)N[C@H]1[C@H]([C@H](O)[C@H](O)CO)OC(C(=O)O)=C[C@@H]1N=C(N)N [Zanamivir] | – | – | – | EC50 ([2]; Influenza A virus, zanamivir alone, PR8, MDCK cells, read-out: EC50): 1 µM; PR8 Yield ([2]; Zanamivir 0.01 μM): 48 HAU/ml; PR8 Yield ([2]; Zanamivir 0.1 μM): 48 HAU/ml; PR8 Yield ([2]; Zanamivir 1 μM): 24 HAU/ml; effect on viral replication ([2]; zanamivir alone at 0.1 μM): had no effect; reduction (inhibition) of virus yield ([2]; zanamivir alone at the highest test concentration of 1): 50%
CCOC(=O)C1=C[C@@H](OC(CC)CC)[C@H](NC(C)=O)[C@@H](N)C1 [oseltamivir, reference compound] | – | – | – | reduction (inhibition) of virus yield [3]: did not observe reduction
tunicamycin [TM, reference compound] | – | – | – | HA0 glycosylation (glucosamine, mannose incorporation) [4]: completely prevented HA0 glycosylation; intracellular HA0 levels / accumulation [4]: caused a decrease in HA0 accumulation
